Measured values: US12354130B2, “Combination therapies” (Genentech, Inc., priority 2012, dated 2025)
Like-named read-outs stand apart in the source and are kept apart here.

What was measured:
[1] = cited from earlier work
[2] = system: patients with BRAF^V600 mutation-positive, unresectable locally advanced or metastatic melanoma
Description: This multicenter study has 2 stages: a dose-escalation stage and a cohort-expansion stage.
Key inclusion criteria include the presence of the V600E mutation in melanoma tumor tissue using the Cobas® 4800 BRAF V600 mutation test, measurable disease per Response Evaluation Criteria in Solid Tumors (RECIST) v1.1, ECOG PS of ≤1, and adequate hematologic and end organ function as assessed through key laboratory measures. Patients were excluded if they had: ocular pathology or risk factors that predisposes to retinal vein occlusion; QTc>450 ms; or active CNS metastasis. Patients treated with stereotactic radiation therapy or surgery were eligible if stable for >3 weeks prior to treatment.
Each treatment cycle was 28 days.
Dose-escalation used the standard 3+3 design and proceeded in increments, taking into account the safety and tolerability of the combination.
Eligible patients had BRAF^V600-mutated unresectable or metastatic melanoma, and ECOG PS 0-1. Patients were either naïve to vemurafenib or had disease progression on vemurafenib. The study consisted of dose-escalation and expansion stages. […] Primary endpoints were maximum tolerated dose (MTD), dose-limiting toxicity (DLT) of both drugs, safety, and PK.

[3] = system: unresectable or metastatic melanoma that is BRAFV600E mutation-positive; settings: cited from earlier work
[4] = cited from earlier work; remark: listed apart in the source
[5] = during combination treatment, as of 6 Jul. 2012
[6] = compared with dacarbazine (Chapman et al. 2011)

| Structure (SMILES) | single-agent MTD ([1]; 21/7 schedule) | dose-limiting toxicity event ([2]; cohort 1 (vemurafenib 720 mg BID+GDC-0973 60 mg QD 14/14), led to discontinuation of vemurafenib) | dose-limiting toxicity event ([2]; cohort 1D) | discontinuation of the drug because of QT interval prolongation [2, 5] | primary dose reduction of the drug because of LFT abnormality [2, 5] | primary dose reduction of the drug because of central serous retinopathy [2, 5] | primary dose reduction of the drug because of rash [2, 5] | temporary interruption of the drug because of arthralgia [2, 5] | temporary interruption of the drug because of liver function test (LFT) abnormalities [2, 5] | temporary interruption of the drug because of rash [2, 5] | response rates ([3]; Flaherty 2010, Chapman 2011, Sosman 2012) | decrease in the risk of disease progression or death [3, 6] | reduction in the risk of death [3, 6] | dissolution rate of the amorphous form as compared to the crystalline form [4] | solubility in water of the amorphous form as compared with the crystalline form [4] | single-agent MTD ([1]; in vivo) |
| --- | --- | --- | --- | --- | --- | --- | --- | --- | --- | --- | --- | --- | --- | --- | --- | --- |
| O=C(c1ccc(F)c(F)c1Nc1ccc(I)cc1F)N1CC(O)([C@@H]2CCCCN2)C1 [GDC-0973, [3,4-difluoro-2-[(2-fluoro-4-iodophenyl)amino]phenyl][3-hydroxy-3-[(2S)-2-piperidinyl]-1-azetidinyl]methanone] | 60 mg | – | – | – | – | – | – | – | – | – | – | – | – | – | – | – |
| CCCS(=O)(=O)Nc1ccc(F)c(C(=O)c2c[nH]c3ncc(-c4ccc(Cl)cc4)cc23)c1F [vemurafenib, propane-1-sulfonic acid {3-[5-(4-chlorophenyl)-1H-pyrrolo[2,3-b]pyridine-3-carbonyl]-2,4-difluoro-phenyl}-amide] | – | Grade 3 QT prolongation | Grade 3 arthralgia | 1 patient | 1 patient | 1 patient | 1 patient | 3 patients | 3 patients | 8 patients | greater than 50% | 74% | 63% | improved dissolution rate | greater solubility in water | 960 mg BID |
